Results published in ChEMBL document CHEMBL5465560, “Selectivity Literature for EUbOPEN Chemogenomic Library” (2024).

What was measured:
[1] = molecular target: T1, Ephrin type-A receptor 8 (Homo sapiens) (UniProt P29322); assay: Selectivity interaction (KinomeScan (DiscoverX)) EUB0000607a EPHA8; conditions: at 10 µM
T1 sequence (whole entry): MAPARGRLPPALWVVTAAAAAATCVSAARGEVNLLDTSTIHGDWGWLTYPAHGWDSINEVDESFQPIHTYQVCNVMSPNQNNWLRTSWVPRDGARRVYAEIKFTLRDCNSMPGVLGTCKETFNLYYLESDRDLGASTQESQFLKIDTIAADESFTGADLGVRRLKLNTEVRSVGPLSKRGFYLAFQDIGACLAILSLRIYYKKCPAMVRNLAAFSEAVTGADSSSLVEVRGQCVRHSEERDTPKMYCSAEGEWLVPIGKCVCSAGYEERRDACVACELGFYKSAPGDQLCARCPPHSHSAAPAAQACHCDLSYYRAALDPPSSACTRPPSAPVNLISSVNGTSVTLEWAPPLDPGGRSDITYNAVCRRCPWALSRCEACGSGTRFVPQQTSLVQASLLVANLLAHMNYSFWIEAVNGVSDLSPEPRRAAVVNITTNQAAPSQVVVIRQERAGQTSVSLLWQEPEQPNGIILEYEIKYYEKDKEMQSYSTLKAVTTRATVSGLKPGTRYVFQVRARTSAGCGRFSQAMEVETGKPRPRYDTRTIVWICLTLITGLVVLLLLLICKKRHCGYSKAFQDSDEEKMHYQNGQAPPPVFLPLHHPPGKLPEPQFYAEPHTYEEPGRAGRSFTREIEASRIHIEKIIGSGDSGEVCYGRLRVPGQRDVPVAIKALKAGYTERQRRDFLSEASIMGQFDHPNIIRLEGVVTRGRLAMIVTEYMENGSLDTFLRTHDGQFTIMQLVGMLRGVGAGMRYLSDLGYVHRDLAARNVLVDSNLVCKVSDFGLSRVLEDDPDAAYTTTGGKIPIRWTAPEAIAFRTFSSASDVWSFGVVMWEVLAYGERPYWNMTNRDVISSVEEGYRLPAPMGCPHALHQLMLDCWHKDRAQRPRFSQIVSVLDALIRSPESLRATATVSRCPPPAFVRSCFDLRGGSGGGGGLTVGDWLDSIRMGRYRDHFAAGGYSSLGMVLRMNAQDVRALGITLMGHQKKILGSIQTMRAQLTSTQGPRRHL

[2] = molecular target: Hepatocyte growth factor-like protein (Homo sapiens) (UniProt P26927); conditions: at 10 µM
[3] = molecular target: Cyclin-dependent kinase 17 (Homo sapiens) (UniProt Q00537); assay: Selectivity interaction (ActivX KiNativ screen (kinase selectivity in THP-1 cell lysates)) EUB0000639a CDK17; type: subcellular; conditions: lysate, at 1 µM
Sequence of Cyclin-dependent kinase 17 (Homo sapiens) (Q00537 whole entry, looked up): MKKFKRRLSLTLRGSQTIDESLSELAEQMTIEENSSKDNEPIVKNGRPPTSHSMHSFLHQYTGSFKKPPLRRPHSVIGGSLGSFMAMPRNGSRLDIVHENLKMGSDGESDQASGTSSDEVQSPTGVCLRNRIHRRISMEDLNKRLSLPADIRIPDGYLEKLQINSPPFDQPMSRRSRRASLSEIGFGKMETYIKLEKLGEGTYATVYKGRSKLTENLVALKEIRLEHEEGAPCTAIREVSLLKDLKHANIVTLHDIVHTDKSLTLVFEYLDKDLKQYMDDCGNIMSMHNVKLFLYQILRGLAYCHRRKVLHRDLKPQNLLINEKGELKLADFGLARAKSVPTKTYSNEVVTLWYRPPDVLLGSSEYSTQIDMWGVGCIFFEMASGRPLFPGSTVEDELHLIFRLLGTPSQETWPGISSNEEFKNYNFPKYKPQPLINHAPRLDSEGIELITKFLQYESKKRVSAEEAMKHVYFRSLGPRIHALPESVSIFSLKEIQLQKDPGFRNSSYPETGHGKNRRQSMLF

[4] = molecular target: [Pyruvate dehydrogenase (acetyl-transferring)] kinase isozyme 1, mitochondrial (Homo sapiens, UniProt Q15118); assay: Selectivity interaction (Kinase screening (Upstate/Millipore)) EUB0000604a PDK1
[5] = molecular target: Serine/threonine-protein kinase PLK1 (Homo sapiens, UniProt P53350); assay: Selectivity interaction (Ambit KINOMEscan and KiNATiv profiling in Jurkat cells) EUB0000090b PLK1; type: cell-based; conditions: at 1 µM
Sequence of Serine/threonine-protein kinase PLK1 (P53350 whole entry): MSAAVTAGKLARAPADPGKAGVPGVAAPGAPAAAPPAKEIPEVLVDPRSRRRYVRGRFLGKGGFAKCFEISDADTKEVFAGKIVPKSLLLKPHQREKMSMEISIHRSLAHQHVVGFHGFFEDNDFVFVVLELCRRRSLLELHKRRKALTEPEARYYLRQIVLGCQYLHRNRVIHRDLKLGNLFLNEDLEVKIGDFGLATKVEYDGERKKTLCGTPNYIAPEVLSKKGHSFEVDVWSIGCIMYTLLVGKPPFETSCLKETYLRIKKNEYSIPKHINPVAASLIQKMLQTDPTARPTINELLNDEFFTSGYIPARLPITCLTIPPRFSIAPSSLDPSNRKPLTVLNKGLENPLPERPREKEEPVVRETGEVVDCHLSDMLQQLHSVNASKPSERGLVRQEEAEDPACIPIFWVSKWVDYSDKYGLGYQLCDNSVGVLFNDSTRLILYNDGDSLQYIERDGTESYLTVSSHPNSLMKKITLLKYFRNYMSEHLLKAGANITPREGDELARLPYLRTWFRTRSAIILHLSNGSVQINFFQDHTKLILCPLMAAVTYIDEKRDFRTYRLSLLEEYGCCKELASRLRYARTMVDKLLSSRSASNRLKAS

[6] = molecular target: T2, 5-hydroxytryptamine receptor 3A (Homo sapiens) (UniProt P46098); assay: Selectivity interaction (Panel of kinases, GPCRs, ion channels and transporters (enzymatic assay)) EUB0000223bCl HTR3A
T2 sequence (whole entry): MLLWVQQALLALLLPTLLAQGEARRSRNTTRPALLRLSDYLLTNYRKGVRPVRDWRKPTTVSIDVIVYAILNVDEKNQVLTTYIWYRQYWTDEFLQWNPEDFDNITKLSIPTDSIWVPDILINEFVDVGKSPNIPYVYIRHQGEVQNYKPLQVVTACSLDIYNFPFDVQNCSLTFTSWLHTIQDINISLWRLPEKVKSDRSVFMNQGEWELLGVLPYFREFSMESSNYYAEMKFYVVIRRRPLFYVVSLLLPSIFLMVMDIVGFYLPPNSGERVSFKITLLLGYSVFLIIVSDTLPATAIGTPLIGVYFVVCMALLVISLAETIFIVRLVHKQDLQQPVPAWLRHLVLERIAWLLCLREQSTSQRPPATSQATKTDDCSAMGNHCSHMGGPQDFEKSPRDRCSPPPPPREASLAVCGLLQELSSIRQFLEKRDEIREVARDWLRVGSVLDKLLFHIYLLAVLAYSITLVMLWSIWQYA

[7] = molecular target: Cyclin-dependent kinase 14 (Homo sapiens) (UniProt O94921); assay: Selectivity interaction (KinomeScan (DiscoverX)) EUB0000045b CDK14
Sequence of Cyclin-dependent kinase 14 (Homo sapiens) (O94921 whole entry): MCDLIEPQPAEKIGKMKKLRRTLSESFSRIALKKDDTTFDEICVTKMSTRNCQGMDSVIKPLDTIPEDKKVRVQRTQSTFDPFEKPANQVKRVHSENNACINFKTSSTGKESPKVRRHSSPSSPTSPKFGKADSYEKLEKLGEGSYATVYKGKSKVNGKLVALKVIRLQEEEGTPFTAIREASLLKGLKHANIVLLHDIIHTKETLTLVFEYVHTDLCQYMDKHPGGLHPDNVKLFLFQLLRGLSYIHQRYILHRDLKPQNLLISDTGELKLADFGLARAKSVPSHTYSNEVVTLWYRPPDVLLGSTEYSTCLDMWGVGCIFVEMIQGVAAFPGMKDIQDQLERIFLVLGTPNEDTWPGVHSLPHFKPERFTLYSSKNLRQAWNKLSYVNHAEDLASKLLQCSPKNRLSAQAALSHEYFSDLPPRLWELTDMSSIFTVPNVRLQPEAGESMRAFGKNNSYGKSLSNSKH

[8] = molecular target: Rho-associated protein kinase 1 (Homo sapiens) (UniProt Q13464); assay: Selectivity interaction (KinomeScan (DiscoverX)) EUB0001079a ROCK1; conditions: at 1 µM
Sequence of Rho-associated protein kinase 1 (Homo sapiens) (Q13464 2-1354 limits assumed): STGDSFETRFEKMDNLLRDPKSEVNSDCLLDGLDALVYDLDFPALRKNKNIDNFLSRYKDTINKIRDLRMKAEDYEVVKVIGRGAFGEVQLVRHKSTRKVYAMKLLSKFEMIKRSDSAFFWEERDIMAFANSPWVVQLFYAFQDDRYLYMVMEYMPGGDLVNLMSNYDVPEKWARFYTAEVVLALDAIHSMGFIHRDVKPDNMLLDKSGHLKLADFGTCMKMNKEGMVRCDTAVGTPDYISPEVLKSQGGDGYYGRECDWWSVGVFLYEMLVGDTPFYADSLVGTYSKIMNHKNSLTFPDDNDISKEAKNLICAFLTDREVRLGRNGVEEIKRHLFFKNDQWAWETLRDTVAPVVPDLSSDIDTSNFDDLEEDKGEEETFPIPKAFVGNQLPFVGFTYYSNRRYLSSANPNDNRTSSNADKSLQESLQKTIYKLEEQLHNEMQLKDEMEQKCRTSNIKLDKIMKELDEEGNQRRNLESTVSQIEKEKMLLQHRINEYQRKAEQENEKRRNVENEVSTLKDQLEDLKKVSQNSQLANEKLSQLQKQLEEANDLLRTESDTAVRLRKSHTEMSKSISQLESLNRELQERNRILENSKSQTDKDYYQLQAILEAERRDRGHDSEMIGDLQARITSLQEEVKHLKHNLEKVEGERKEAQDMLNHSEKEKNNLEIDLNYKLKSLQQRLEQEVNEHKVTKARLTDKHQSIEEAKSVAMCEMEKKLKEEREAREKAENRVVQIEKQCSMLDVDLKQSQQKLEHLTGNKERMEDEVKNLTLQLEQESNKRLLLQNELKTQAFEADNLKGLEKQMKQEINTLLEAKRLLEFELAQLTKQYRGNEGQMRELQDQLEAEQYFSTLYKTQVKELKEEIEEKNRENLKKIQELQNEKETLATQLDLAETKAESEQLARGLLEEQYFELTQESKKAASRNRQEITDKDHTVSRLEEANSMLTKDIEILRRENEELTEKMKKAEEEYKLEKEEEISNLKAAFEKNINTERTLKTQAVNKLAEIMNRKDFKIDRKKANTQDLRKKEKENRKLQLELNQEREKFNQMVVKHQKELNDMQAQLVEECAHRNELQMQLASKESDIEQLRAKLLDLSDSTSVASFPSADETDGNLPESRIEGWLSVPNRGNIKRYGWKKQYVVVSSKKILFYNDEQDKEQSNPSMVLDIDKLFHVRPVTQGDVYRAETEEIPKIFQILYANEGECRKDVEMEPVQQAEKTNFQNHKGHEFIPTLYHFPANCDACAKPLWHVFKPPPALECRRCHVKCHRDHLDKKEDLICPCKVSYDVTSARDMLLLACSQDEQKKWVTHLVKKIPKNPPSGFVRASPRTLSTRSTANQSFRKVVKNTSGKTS

[9] = molecular target: Tyrosine-protein kinase Fer (Homo sapiens) (UniProt P16591); assay: Selectivity interaction (Kinase panel (KiNativ target engagement assay in Jurkat cells)) EUB0001635a FER; type: cell-based; conditions: Selectivity number of off-targets 0.0, Selectivity number of targets 233.0, Source Knowledge https://www.sciencedirect.com/science/article/pii/S2451945619300674?via%3Dihub, at 1 µM
Sequence of Tyrosine-protein kinase Fer (Homo sapiens) (P16591 whole entry, looked up): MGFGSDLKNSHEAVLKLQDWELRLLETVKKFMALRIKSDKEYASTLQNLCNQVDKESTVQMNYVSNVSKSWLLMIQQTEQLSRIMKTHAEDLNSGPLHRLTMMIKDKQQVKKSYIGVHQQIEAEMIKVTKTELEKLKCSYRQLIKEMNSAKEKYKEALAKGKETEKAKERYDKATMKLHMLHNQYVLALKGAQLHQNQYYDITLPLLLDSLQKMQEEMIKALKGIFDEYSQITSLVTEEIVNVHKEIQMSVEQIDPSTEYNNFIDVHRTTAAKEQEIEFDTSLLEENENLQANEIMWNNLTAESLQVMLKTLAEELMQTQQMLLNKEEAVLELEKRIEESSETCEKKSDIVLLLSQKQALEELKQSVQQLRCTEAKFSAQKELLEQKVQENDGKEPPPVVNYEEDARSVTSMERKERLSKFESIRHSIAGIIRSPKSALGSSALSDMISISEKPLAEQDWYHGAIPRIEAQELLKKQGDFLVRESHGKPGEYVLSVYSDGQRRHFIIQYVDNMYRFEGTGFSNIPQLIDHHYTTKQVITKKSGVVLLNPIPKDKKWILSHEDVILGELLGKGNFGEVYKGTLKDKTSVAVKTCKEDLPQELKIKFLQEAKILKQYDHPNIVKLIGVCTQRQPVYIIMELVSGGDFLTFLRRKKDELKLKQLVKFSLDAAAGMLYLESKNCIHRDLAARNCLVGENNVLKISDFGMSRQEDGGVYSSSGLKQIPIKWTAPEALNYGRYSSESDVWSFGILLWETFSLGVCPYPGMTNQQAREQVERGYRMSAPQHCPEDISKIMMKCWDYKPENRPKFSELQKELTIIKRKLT

**Q.** With CNC(=O)Nc1ccc(-c2nc(N3CC4CCC(C3)O4)c3cnn(C4CCC5(CC4)OCCO5)c3n2)cc1 as the compound, how does the % of control [1] read?
**A.** Its % of control is 81%.

**Q.** CCN(CC)CCCCNc1ncc2cc(-c3cc(OC)cc(OC)c3)c(NC(=O)NC(C)(C)C)nc2n1 was tested. Which % of control [2] did it give?
**A.** The % of control was 100%.

**Q.** With CC[C@@H]1[C@H](F)C(=O)N[C@@H]1COc1nccc2cc(C(N)=O)c(OC)cc12 [ZIMLOVISERTIB] as the compound, how does the % of inhibition [3] read?
**A.** Its % of inhibition is 3.9%.

**Q.** Which % of inhibition [4] does the source give for Cc1cnc(Nc2ccc(F)cc2Cl)nc1-c1c[nH]c(C(=O)N[C@H](CO)c2cccc(Cl)c2)c1 here?
**A.** Its % of inhibition is 10%.

**Q.** With CN(C)C/C=C/C(=O)Nc1ccc(C(=O)N2CCCC(Nc3ncc(Cl)c(-c4c[nH]c5ccccc45)n3)C2)cc1 (stereo not given) as the compound, how does the % of control [5] read?
**A.** The % of control was 90%.

**Q.** COc1cc(C(=O)N2CC[C@@H](O)[C@@H](N)C2)cc2nc(-c3cc4ccccc4n3CC3CC3)n(C)c12 was tested. Which pXC50 [6] did it give?
**A.** Its pXC50 is 5.9 M.

**Q.** Which % of control ([7]; at 1 µM) does the source give for C=CC(=O)Nc1cc(-n2c(=O)ccc3cnc4ccc(-c5ccc(NS(C)(=O)=O)cc5)cc4c32)ccc1C here?
**A.** The % of control was 100%.

**Q.** What about the % of control ([7]; at 10 µM) of the same compound?
**A.** Its % of control is 72%.

**Q.** With Nc1cnc(N2CCc3cc(S(=O)(=O)Nc4c(F)cc(Cl)cc4F)cc(N4CCCC4=O)c32)nc1 [TP-020n] as the compound, how does the % of control [8] read?
**A.** Its % of control is 96%.

**Q.** Which % of engagement [9] does the source give for C=CC(=O)Nc1ccc(C(=O)Nc2[nH]nc3c2CN(C(=O)N[C@H](CN(C)C)c2ccccc2)C3(C)C)cc1 here?
**A.** Its % of engagement is -6.9%.
